ChEMBL document CHEMBL1681653, “Synthesis of N-alkylated noeurostegines and evaluation of their potential as treatment for Gaucher's disease” (Bioorg Med Chem Lett, 2011)
Where a chain is given by its changes, count along the chain named. Activity calls are given as the source filed them. The calls are words filed in the database; no cut-off is given here.

What was measured:
[1] = biological target: T1, Lysosomal acid glucosylceramidase (Homo sapiens, UniProt P04062); assay: Inhibition of partially purified human placental beta-glucocerebrosidase after 15 to 60 mins
T1 sequence (P04062 whole entry): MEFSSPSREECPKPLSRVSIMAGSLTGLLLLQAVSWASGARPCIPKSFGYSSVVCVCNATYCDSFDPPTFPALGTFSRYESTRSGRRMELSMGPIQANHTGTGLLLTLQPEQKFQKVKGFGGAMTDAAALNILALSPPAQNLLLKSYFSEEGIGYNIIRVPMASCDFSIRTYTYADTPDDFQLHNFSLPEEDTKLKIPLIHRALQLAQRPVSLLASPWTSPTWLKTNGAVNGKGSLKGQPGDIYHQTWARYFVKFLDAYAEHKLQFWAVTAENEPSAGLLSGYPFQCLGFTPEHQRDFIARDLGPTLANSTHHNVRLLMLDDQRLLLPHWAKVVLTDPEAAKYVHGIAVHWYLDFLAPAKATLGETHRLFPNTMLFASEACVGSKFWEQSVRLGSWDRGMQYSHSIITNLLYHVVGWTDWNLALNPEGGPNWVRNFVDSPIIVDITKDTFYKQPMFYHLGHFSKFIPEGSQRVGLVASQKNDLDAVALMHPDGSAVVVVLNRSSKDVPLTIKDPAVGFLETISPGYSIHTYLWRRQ

[2] = test system: T2, Lysosomal acid glucosylceramidase (Homo sapiens), P04062 [N409S]; assay: Activation of beta-glucocerebrosidase in human N370S cells assessed as increase of residual activity at 0.05 to 100 uM after 3 days; type: cell-based
T2 sequence (whole entry): T1 sequence (P04062 whole entry) with N409S

Rattus norvegicus [3] = organism: Rattus norvegicus; assay: Inhibition of rat liver alpha-glucosidase 2 assessed as conversion of Glc2Man7GlcNAc2 to Glc1Man7GlcNAc2 at 100 uM after 1.25 hrs
[4] = biological target: T3, Neutral alpha-glucosidase AB (Homo sapiens) (UniProt Q14697); assay: Inhibition of endoplasmic reticulum alpha-glucosidase 2 in human HL-60 cells assessed as free oligosaccharide level at 50 uM after 24 hrs; type: cell-based
T3 sequence (whole entry): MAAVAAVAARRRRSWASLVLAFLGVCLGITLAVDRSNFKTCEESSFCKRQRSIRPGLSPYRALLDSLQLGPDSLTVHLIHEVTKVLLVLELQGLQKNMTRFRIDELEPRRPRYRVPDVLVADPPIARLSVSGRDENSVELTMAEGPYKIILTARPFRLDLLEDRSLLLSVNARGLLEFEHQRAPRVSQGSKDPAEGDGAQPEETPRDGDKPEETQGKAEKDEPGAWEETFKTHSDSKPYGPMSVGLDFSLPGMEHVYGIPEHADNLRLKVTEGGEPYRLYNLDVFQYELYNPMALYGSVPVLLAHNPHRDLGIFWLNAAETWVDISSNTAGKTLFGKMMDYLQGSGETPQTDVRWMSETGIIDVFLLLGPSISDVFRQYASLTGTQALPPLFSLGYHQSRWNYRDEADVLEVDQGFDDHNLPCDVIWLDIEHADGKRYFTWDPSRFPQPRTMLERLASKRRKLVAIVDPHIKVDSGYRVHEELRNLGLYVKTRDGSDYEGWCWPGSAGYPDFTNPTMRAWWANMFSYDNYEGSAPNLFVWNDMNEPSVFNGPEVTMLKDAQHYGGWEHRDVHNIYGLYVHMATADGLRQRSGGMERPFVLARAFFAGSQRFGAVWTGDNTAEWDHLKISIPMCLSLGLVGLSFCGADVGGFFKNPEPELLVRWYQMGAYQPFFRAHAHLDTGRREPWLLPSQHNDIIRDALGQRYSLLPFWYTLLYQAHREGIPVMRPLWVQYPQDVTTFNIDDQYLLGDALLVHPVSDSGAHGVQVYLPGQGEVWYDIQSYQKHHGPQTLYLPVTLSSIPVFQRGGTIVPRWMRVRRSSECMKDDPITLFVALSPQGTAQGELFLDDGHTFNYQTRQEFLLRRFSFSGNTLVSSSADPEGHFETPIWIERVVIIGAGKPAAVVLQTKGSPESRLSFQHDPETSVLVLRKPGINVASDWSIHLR

HL-60 [5] = assay: Inhibition of endoplasmic reticulum alpha-glucosidase 1 in human HL-60 cells assessed as free oligosaccharide level at 50 uM after 24 hrs; type: cell-based
Rattus norvegicus [6] = organism: Rattus norvegicus; assay: Inhibition of rat liver alpha-glucosidase 2 assessed as conversion of Glc2Man7GlcNAc2 to Man7GlcNAc2 at 100 uM after 1.25 hrs
HL-60 [7] = assay: Inhibition of endoplasmic reticulum alpha-glucosidase 1 in human HL-60 cells assessed as free oligosaccharide level at 500 uM after 24 hrs; type: cell-based
[8] = biological target: T3, Neutral alpha-glucosidase AB (Homo sapiens); assay: Inhibition of endoplasmic reticulum alpha-glucosidase 2 in human HL-60 cells assessed as free oligosaccharide level at 500 uM after 24 hrs; type: cell-based
[9] = test system: T2, Lysosomal acid glucosylceramidase (Homo sapiens), P04062 [N409S]; assay: Activation of beta-glucocerebrosidase in human N370S cells assessed as increase of residual activity at 0.05 to 100 uM after 3 days relative to control; type: cell-based
Rattus norvegicus [10] = organism: Rattus norvegicus; assay: Inhibition of rat liver alpha-glucosidase 2 assessed as conversion of Glc2Man7GlcNAc2 to Man7GlcNAc2 at 500 uM after 1.25 hrs
Rattus norvegicus [11] = organism: Rattus norvegicus; assay: Inhibition of rat liver alpha-glucosidase 2 assessed as conversion of Glc2Man7GlcNAc2 to Glc1Man7GlcNAc2 at 500 uM after 1.25 hrs

## O[C@@H]1[C@@H](O)[C@H](O)[C@]2(O)CC[C@H]1N2 [CALYSTEGINE B2]
[1]
  IC50: 1 µM

## CCCCN1[C@@H]2CC[C@@]1(O)[C@@H](O)[C@H](O)[C@H]2CO
[1]
  IC50: 100 µM
[2]
  Activity: inactive

## CCCCCCCCCN1[C@@H]2CC[C@@]1(O)[C@@H](O)[C@H](O)[C@H]2CO
[1]
  IC50: 60 µM
[2]
  Activity: inactive

## CCCCN1C[C@H](O)[C@@H](O)[C@H](O)[C@H]1CO
Rattus norvegicus [3]
  inhibition: Active
[4]
  inhibition: Active
HL-60 [5]
  inhibition: Active
Rattus norvegicus [6]
  inhibition: Active

## OC[C@@H]1[C@@H](O)[C@H](O)[C@]2(O)CC[C@H]1N2 [NOEUROSTEGINE]
[1]
  IC50: 0.4 µM
HL-60 [7]
  inhibition: inactive
[8]
  inhibition: inactive
[9]
  fold change (FC): 1.82
Rattus norvegicus [10]
  inhibition: inactive
Rattus norvegicus [11]
  inhibition: inactive
